The values below come from patent US20240287054A1, “COMPOUNDS THAT BIND NON-CANONICAL G-QUADRUPLEX STRUCTURES AND METHODS OF MAKING AND USING THE SAME” (The U.S.A., as Represented by the Secretary, Department of …, priority 2021, published 2024).

Where two headings read alike, the source gives them in different places.

For one series, the target named is MYCN G4 DNA. Description: Surface plasmon resonance (SPR) with immobilized biotinylated MYCN G4 DNA. In kind it is binding, human. How it is done:
Surface plasmon resonance (SPR) analysis. The SPR binding assays were performed with a BIAcore 3000 (GE Healthcare) instrument. A CM5 SPR biochip was loaded into the system and primed with running buffer (10 mM Tris, pH7.0, 100 mM KCl, 0.005% Tween 20, 5% DMSO) with a flow rate of 5 μL/min. Then both Flow Cell (Fc) 1 and 2 were activated by EDC/NHS (0.4 M/0.1 M) aqueous solution for 15 min, followed with an injection of streptavidin (SA) solution (0.2 mg/mL in 10 mM sodium acetate buffer, pH4.5) for 30 minutes. After the immobilization amount of SA reached 8,000-10,000 RU, the surface was deactivated by flowing 1 M Ethanolamine aqueous solution (pH 8.5) for 10 min and regenerated with 10 mM NaOH for 2 min to remove the unbound SA. In the meantime, biotinylated MYCN G4 DNA was prepared at 5 μM in the annealing buffer and heated up to 95° C. for 5 min and slowly cooled down. After annealing, a total of 150 μL solution was injected in the Fc 2 of SPR system for 30 min to immobilize DNA onto the chip surface. The small molecule solutions were tested once the baseline was stable.
To detect the binding signal as well as the binding affinity, a higher flowing rate (25 μL/min) was used in both Fc 1 (reference) and Fc 2 (DNA). Each of the compound solution was prepared at 20× designed the concentrations in DMSO, and then diluted into non-DMSO running buffer, resulting in a final concentration of 5% DMSO. Then, a total of 50 μL compound solution was injected in Fc 1-2 flow path for 120 s for association, followed with 200 s running of buffer for dissociation. An injection of 50 μL regeneration buffer (1 M KCl) could be performed between two samples if necessary. The final binding curve was obtained by reference subtraction. To determine the binding affinity (KD), a series of diluted compound solutions were injected and KD was calculated by BIAevaluation 4.0 software (GE Healthcare) using Langmuir 1:1 binding model.
In this example, SPR binding assays were performed to analyze binding activity of representative bivalent compounds of the present disclosure. The compounds of this example included a non-canonical binder component and a G4 stacker component. A BIAcore 3000 (GE Healthcare) instrument was used. A CM5 SPR biochip was used and primed with running buffer (10 mM Tris, pH7.0, 100 mM KCl, 0.005% Tween 20, 5% DMSO). To immobilize the compounds onto the chip surface, the flow rate was set as 5 μL/min. Then the carboxylated dextran on the chip surface was activated by EDC/NHS (0.4 M/0.1 M) aqueous solution for 15 min, followed with an injection of streptavidin (SA) solution (0.2 mg/mL in 10 mM sodium acetate buffer, pH 4.5) for 30 minutes. After the immobilization amount of SA, the surface was quenched by injecting 1 M ethanolamine (EA) aqueous solution (pH 8.5) for 10 min and regenerated with 10 mM NaOH for 2 min to remove the physical adsorption. Furthermore, biotinylated MYCN G4 DNA was prepared at 5 μM in the annealing buffer and heated up to 95° C. for 5 min followed with slowly cooling down to room temperature within 1 h. After annealing, a total of 150 μL solution was injected in the Fc 2 of SPR system for 30 min to immobilize DNA onto the chip surface. The compound solutions were then tested once the baseline was stable.
To detect the binding signal as well as the binding affinity, a higher flowing rate (25 μL/min) was used in both Fc 1 (blank) and Fc 2 (target). Each of the compound solutions was prepared at 20× designed the concentrations in DMSO, and then diluted into non-DMSO running buffer, resulting in a final concentration of 5% DMSO. Then, a total of 50 μL compound solution was injected in Fc 1-2 flow path for 120 s for association, followed with 200 s running of buffer for dissociation. An injection of 50 μL regeneration buffer (1 M KCl) could be performed between two samples if necessary. The final binding curve was obtained by referencing the blank channel (Fc 1). […]
(Surface plasmon resonance follows binding to a sensor surface in real time, without labels.)

The next series has as its system dsDNA. Description: SPR binding to dsDNA. To be noted: up to 5 μM compound injection.
In a further series the target is MYCN hairpin-G4 DNA. Description: FIA using compound fluorescence (Ex 340/Em 500 nm), titration with unlabeled MYCN G4 DNA. The settings on record: 100 nM compound titrated with folded unlabeled MYCN G4. The class given is binding, human. Here is the method: In this study, FIA was used for validating the bindings between certain bivalent and MYCN G4 oligos. To measure the binding affinity, a solution of each compound was prepared in triplicate in a 96 well-plate (Costar, black side clear bottom), resulting in a final concentration of 100 nM (5% final DMSO in the working solution). Unlabeled MYCN G4 DNA was folded based on the above-mentioned annealing method, then added into the well plate resulting in different concentrations by a seral dilution. The plate was incubated at room temperature for 30 min, followed by centrifuging at 500 rpm for 2 minutes. The fluorescence intensity was then quantitatively recorded by a Synergy Mx microplate reader (BioTek) at Ex 340 nm/Em 500 nm. The fluorescence intensities were then normalized, and the binding affinity was calculated by fitting the curve using one-site total model in GraphPad Prism 8.3.1 software.

The nature of series [1]: Solubility / aggregation observations in binding buffers. The class given is physicochemical. The settings on record: assay buffers, SPR sensorgrams. How it is done: A systematic binding assay between 14 analogs and MYCN G4 was performed by SPR and 2-AP (A11) fluorescence titration (FIGS. 26A-26N, 27A-27N). […] For 2-AP fluorescence titration assay (using an A11-substituted construct) observed KD values aligned well with SPR experiments, although the values were slightly lower overall. […] Taking all the SAR data into consideration, MY-8 was elected for cell-based assays.

For series [2], the system named is 12 different G4 oligos as well as non-G4 oligos (dsDNA and ssDNA). Description: Small-scale DNA G4 microarray binding selectivity. The settings on record: fluorescent compound incubated 1 h; B33 at 2.5 μM. How it is done:
In this example, a small-scale DNA G4 microarray containing 12 different G4 oligos as well as non-G4 oligos (dsDNA and ssDNA) was fabricated and tested (Table 4). To start with, a SA-coated glass surface was prepared. An amino-functionalized glass slide was firstly modified with a solution of N, N′-disuccinimidyl carbonate (DSC, 1.0 M) and N, N-diisopropylethylamine (DIPEA, 1.0 M) in DMF overnight at room temperature. After being washed successively with EtOH, Milli-Q water (5 min each) and dried with N2 gas, the slide was incubated with 1 mg/mL of SA solution for 12 h (overnight) in a 4° C. fridge, followed by blocking the surface with EA buffer for 30 minutes. Then, the slide was rinsed with PBS buffer and Milli-Q water, and dried b centrifugation (1,700 g, 2 min).
In parallel, biotin-labeled DNA/RNA oligos were prepared in annealing buffer resulting in 5 μM stock solutions, followed by annealing (according to above methods). Then all the oligo solutions were transferred into a 384-well plate. Next, the microarray printing was conducted by a robotic arrayer (Nanoprint, Arrayit, USA) with a humidity of 60%. After the microarray was fabricated, the slide was placed in a slide box with a piece of wet Kimwipe tissue and incubated at 4° C. for 2 h.
To incubate with the fluorescent compounds (compound B33, thiazole orange (“TO”), and amsacrine), the slide was thoroughly rinsed with PBST, PBS, and water to remove the unbounded oligos. Then, the slide was dried by centrifugation (1,700 g, 2 min) and quickly assembled with microarray gaskets (Agilent, USA), followed by loading the compound solutions. After 1 h incubation, the slide was washed and dried with the above-mentioned method. Finally, the microarray slide was imaged by a fluorescence scanner (Mapix) using green channel and the fluorescence intensities were quantified.

Series [3] has as its system ~19,000 different G4 sequences, G4 and non-G4 controls. Description: High-density DNA oligo microarray (~19,000 G4 sequences) selectivity profiling. In kind it is binding. The settings on record: 500 nM compound. The source says: To further characterize the binding selectivity of compound B33, high-density and large-scale DNA microarrays that contained ˜19,000 different G4 sequences were fabricated and used. In this microarray, 340 reported G4s (G-rich sequences) as well as 280 non-G4s (C-rich sequences) were designed as positive and negative controls. Additionally, over 17,000 canonical G4 oligos with short loops (1˜7 nt) were also designed and synthesized by varying the loop sequences to meet the diversity of G4 structure. After folding the surface-grafted DNA oligos in high concentration of KCl buffer, TO and compound B33 solutions (500 nM) were incubated with the microarray, respectively. Then the slides were thoroughly washed, dried, and imaged by a fluorescent scanner using green channel. […] By quantifying the fluorescence intensity of each spot, the bindings of TO and compound B33 were further investigated. The kernel density estimate (KDE) plot and violin plot represented the distribution of the binding signals throughout the whole microarray. […] Compound B33 spectrum spanned a much wider range than that of TO. In the violin plot (FIG. 37C), the mean SNR value of TO group was 12, much higher than that of the compound B33 group. […] Furthermore, the selectivity of the two compounds were quantitatively profiled by using Gini coefficient. Gini coefficient, initially used as an economic concept, has been applied in profiling the selectivity/promiscuity of kinase inhibitors as well as RNA binders. A higher Gini value represents a better selectivity of a compound (Gini coefficient>0.75 is considered an excellent selectivity). The Gini coefficient based on the SNRs in the microarray.

Series [4] concerns the target MYCN G4 DNA (2-AP at A11). Description: 2-Aminopurine (2-AP) fluorescence titration, A11-labeled MYCN G4. The class given is binding, human. The settings on record: 2-AP at A11 of MYCN G4. How it is done: 2-Aminopurine (2-AP) fluorescence titration. Fluorescence titrations based on 2-aminopurine labeling were performed using the protocol reported previously. Briefly, MYCN G4 oligonucleotide with a 2-AP substitution at either A11 or A18 position was annealed by heating the sample to 95° C. for 5 min and cooling down to RT slowly. The oligonucleotide with folded structure was diluted to 10 μM in Tris buffer (10 mM Tris, pH7.0, 100 mM KCl, 0.005% Tween 20) and prepared in a black 96-well plate (Costar) in triplicate as designed. Small molecules were diluted in DMSO to obtain a series of solutions with concentrations ranging from 0.1 to 5 mM, and then diluted by 20 times added into the plate (5% DMSO final concentration). The final concentration of 2-AP DNA was 1 μM in the well plate. To obtain the background fluorescence, small molecule solutions without DNA were also prepared in the same plate. After incubation for 30 min at RT, the plate was briefly centrifuged and scanned in Synergy Mx microplate reader (BioTek) with Ex 310 nm/Em 365 nm. Fluorescence signals were calculated by averaging the intensities in triplicate wells after subtracting the references. Finally, the binding signals were normalized and the KD value was determined by fitting the curve using a nonlinear sigmoidal dose-response model with a variable slope in GraphPad Prism 8.3.1 software.

Series [5] relates to MYCN G4 DNA (hairpin minor groove). Description: Fluorescence displacement assay with Hoechst 33258. In kind it is binding, human. To be noted: competitor added at 5 μM or 50 μM during DNA titration. How it is done:
Fluorescence displacement assay. Fluorescence displacement assays were carried out by using two classical minor groove binders (Hoechst 33258 and netropsin). Hoechst 33258, as a fluorophore, was prepared at 5 μM concentration in the buffer (10 mM Tris, pH7.0, 100 mM KCl), and then titrated with different concentrations of unlabeled MYCN G4 oligonucleotides. For displacement, either compound MY-1 or netropsin was added into the solution resulting in a final concentration of 5 μM or 50 μM. Fluorescence signals were obtained with an excitation wavelength of 352 nm and an emission wavelength of 500 nm.

The Kd is a measure of binding affinity in units of concentration. Consider `COc1ccc(-c2noc(-c3ccc(NCCNc4c5ccc(Cl)cc5nc5ccc(OC)cc45)nn3)n2)cc1` [B32, N1-(6-chloro-2-methoxyacridin-9-yl)-N2-(6-(3-(4-methoxyphenyl)-1,2,4-oxadiazol-5-yl)pyridazin-3-yl)ethane-1,2-diamine], for which the dissociation constant (Kd) was determined as 303 ± 32 nM at MYCN G4 DNA (MYCN hairpin G4, SPR titration, read-out: KD by SPR) and 311 ± 52 nM at MYCN hairpin-G4 DNA. Besides, in the series with dsDNA, the “binding to dsDNA on SPR” value is “bound to dsDNA at low micromolar level”.

`COc1ccc(-c2noc(-c3ccc(NCCC4=CCCCC4)nn3)n2)cc1` [MY-4]: the solubility / aggregation result in series [1] is reported as “had solubility in suitable buffers”.

Take `CN1C(=Cc2cc[n+](C)c3ccccc23)Sc2ccccc21` [TO]: the “binding pattern in G4 microarray” value in series [2] was “binding to most of the oligos except for dsDNA/ssDNA”. The “binding to the 620 G4 and non-G4 controls” value in series [3] (340 G4s and 280 non-G4s) was “binding to both G4s and non-G4s”. For the same compound, the Gini coefficient in series [3] (based on SNRs in the microarray) came out at 0.236. For the same compound, in series [3] (whole microarray), the “mean SNR value” was determined as 12.

Turning to `COc1ccc(-c2noc(-c3ccc(NCCCN4CCC(N5CCCCC5)CC4)nn3)n2)cc1` [MY-2], the dissociation constant (Kd) on MYCN G4 DNA (MYCN G4, Langmuir 1:1 model, read-out: SPR KD) worked out at 2600 ± 1900 nM; in series [4], 200 ± 30 nM. Further, the “A11 2AP KD” value in series [4] is “sub-micromolar binders”. Besides, the solubility / aggregation entry in series [1] is listed as “aggregation potential/poor solubility”.

For `COc1ccc(-c2noc(-c3ccc(NCCc4ccccc4)nn3)n2)cc1` [MY-9], the solubility / aggregation result in series [1] is “had solubility in suitable buffers”.

With `Cn1cc(NC(=O)c2cc(NC(=O)CN=C(N)N)cn2C)cc1C(=O)NCCC(=N)N` [Netropsin, reference compound], the “displacement of Hoechst 33258 (decrease in fluorescence intensity)” value in series [5] is listed as “significant displacement”.
